# Test results from BindingDB's records for doi:10.1021/acs.jnatprod.5b00540 (Toyama Prefectural University, 2015).
# pIC50: −log10 of the molar value. Numbered stars: 1 amine (or outer) side, 2 acyl side, 3 side chain; on linkers, the order of the positions; unused ones are H or OH. Bridge positions count the residues as written; N and C are the ends. Square brackets hold non-standard residues; d marks the D form. Peptide text beside a SMILES is read from it. * marks the point of attachment. Cinnamoyl(2-(1Z-pentenyl)) = CCC/C=C\c1ccccc1/C=C/C(=O)*; X1 = CN(/C(=C/c1ccc(O)cc1)C(=O)[*:2])[*:1]; aThr = C[C@H](O)[C@H](N)C(=O)O
# Molecular target: T1, Accessory gene regulator protein A (Staphylococcus aureus, UniProt P0A0I7)
# T1 sequence (P0A0I7 whole entry): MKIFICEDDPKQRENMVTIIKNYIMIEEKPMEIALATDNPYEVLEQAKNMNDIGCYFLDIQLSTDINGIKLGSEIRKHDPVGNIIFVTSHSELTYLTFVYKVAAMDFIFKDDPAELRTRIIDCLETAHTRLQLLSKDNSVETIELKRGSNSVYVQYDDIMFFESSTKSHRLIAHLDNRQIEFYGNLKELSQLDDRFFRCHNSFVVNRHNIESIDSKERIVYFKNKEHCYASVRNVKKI
# Assay: Inhibition of agr-mediated quorum sensing in Staphylococcus aureus after 5 hrs by luminescence analysis
row,SMILES,pIC50
1,CCC/C=C\c1ccccc1/C=C/C(=O)N[C@@H]1C(=O)N(C)/C(=C/c2ccc(O)cc2)C(=O)N[C@@H](CC(C)C)C(=O)N[C@H](Cc2ccccc2)C(=O)N[C@@H]([C@H](C)O)C(=O)N[C@@H](CC(N)=O)C(=O)N[C@@H](CO)C(=O)O[C@@H]1C ({Cinnamoyl(2-(1Z-pentenyl))}-T[X1]L[dF][aThr]NS; ester 1-C),5.60
2,C[C@H]1NC(=O)[C@@H](Cc2ccccc2)N(C)C(=O)[C@@H]2CCCN2C(=O)c2ccccc2NC(=O)[C@H](Cc2ccccc2)NC1=O,5.36
3,CC[C@H](C)[C@@H]1NC(=O)[C@@H](C)NC(=O)[C@H](C(C)C)NC(=O)C[C@H](/C=C/c2ccccc2)OC(=O)[C@H](C(C)C)NC1=O [CHEBI:67522],6.10
4,CC(C)[C@@H]1NC(=O)C[C@H](/C=C/c2ccccc2)OC(=O)[C@H](C(C)C)NC(=O)[C@H](C(C)C)NC(=O)[C@@H](C)NC1=O,6.52
